Reference: publication PMC10746112, “Synthesis and Pro-Apoptotic Effects of Nitrovinylanthracenes and Related Compounds in Chronic Lymphocytic Leukaemia (CLL) and Burkitt’s Lymphoma (BL)” (Molecules, 2023)
pIC50: −log10 of the molar value. Several values for one entry are separate records, joined by “and”; a condition that tells them apart may be missing. Identical values can stand only once.

What was measured:
Bjab BL cell line = experiment: alamarBlue cell viability assay; type: cell-based; settings: Homo sapiens, 24 h; for viability at 1 µM: read-out: % Viable Cells Remaining Bjab 24 h 1 µM; for viability at 10 µM: read-out: % Viable Cells Remaining Bjab 24 h 10 µM
Experimental: (§1) Cells were seeded at a density of 2.5 × 10^4 cells/well (MCF-7, MDA-MB-231 cells), 1 × 10^4 cells/well (HL-60 cells), 1–5 × 10^4 cells per well (BL MUTU-I, DG-75 cells) and 2 × 10^5 cells/well [HG-3, PGA-1 (CLL cells)], Ramos, BJAB (BL cells) (200 μL per well), in 96-well plates. Cells were treated with the desired drug concentration for the appropriate time for each cell type, and the samples were incubated as required. alamarBlue (20 μL) was then added to each well and the samples further incubated in the dark at 37 °C for 4 h. Wells containing only reagent and cell culture medium in the absence of cells were used as blank controls. Ethanol was used as a vehicle, and cells were treated with 1% ethanol (v/v) in all experiments. The 96-well plates were analysed on a fluorescence plate reader (SpectraMax Gemini, Molecular Devices) (emission and excitement wavelengths of 590 nm and 544 nm, respectively), and the fluorescence was recorded. The decrease in cell viability was then calculated with reference to the vehicle samples (100% viability). EMEM medium with the addition of alamarBlue was used as a blank. Vehicle-treated cells were considered to be 100% viable, and the viabilities of each compound was calculated accordingly. […] All biochemical assays were performed in triplicate on at least three independent occasions, and the mean values were determined.

Ramos BL cell line = experiment: alamarBlue cell viability assay; type: cell-based; settings: Homo sapiens, 24 h; for viability at 1 µM: read-out: % Viable Cells Remaining Ramos 24 h 1 µM; for viability at 10 µM: read-out: % Viable Cells Remaining Ramos 24 h 10 µM
Experimental: as §1

DG-75 BL cells = experiment: Annexin V/PI apoptotic assay (FACS); type: cell-based; settings: 10 µM, 48 h, total (early + late) apoptosis
Experimental: (§2) The chemotherapeutic drug taxol was used as a positive control. The pro-apoptotic effects of the selected nitrostyrene compounds 11g, 11h, 11i, 11j, 11k and 11l (10 μM) were determined using FITC (fluorescein isothiocyanate), Annexin V/PI (propidium iodide) staining and FACS (fluorescence-activated cell sorting) analysis to characterise the mode of cellular death induced by the synthesised compounds. Four populations were produced in this assay: Annexin-V- and PI-negative (Q4, healthy cells), Annexin-V-positive and PI-negative (Q3, early apoptosis), Annexin-V- and PI-positive (Q2, late apoptosis) and Annexin-V-negative and PI-positive (Q1, necrosis), which were easily identified and quantified. Apoptosis was assessed as % total apoptosis by a combination of early and late apoptosis (Q3 and Q2, respectively). […] The identification of compounds that can induce apoptosis in cancer cells is required in the development of potential lead structures for anticancer drugs.
(§3) The BL cells DG-75 and MUTU-I (750,000) were treated at 37 °C with either vehicle (0.1% (v/v) EtOH), […] taxol (10 μM) and incubated for 24 h (MUTU-1) or 48 h (DG-75). The CLL cells PGA1 and HG3 (1 × 10^6 cells/mL) were treated at 37 °C with either vehicle (1% (v/v) DMSO) or the nitrostyrene compounds 19a (10 μM, 5 μM and 1 μM) and 19g, 19i, 19l and 19m (10 μM and 1 μM) for 48 h. The cells were then harvested by centrifugation at 400× g in a temperature-controlled Sorvall centrifuge and rinsed with 0.5 mL of Ca^2+ Annexin-V-binding buffer (0.1 M HEPES, pH 7.4; 0.14 M NaCl; 25 mM CaCl2). The samples were resuspended in 50 µL FITC Annexin V (diluted 1:33 in Ca^2+ Annexin V-binding buffer), incubated on ice for 10 min (protected from light), washed with Annexin-V-binding buffer and re-suspended in 500 µL of propidium iodide (PI) solution (0.5 µg/mL). The samples were analysed within 1 h using a BD Accuri C6 flow cytometer counting 10,000 cells and analysed using the FlowJo software (FlowJo LLC, Ashland, OR, USA) package.

MUTU-I BL cells = experiment: Annexin V/PI apoptotic assay (FACS); type: cell-based; settings: 10 µM, 24 h, total (early + late) apoptosis
Experimental: as §2, §3

MUTU-1 cells = test system: MUTU-1 cells; design: method as in earlier work; settings: nitrostyrenes and taxol, MTT assay, reported data; cited from earlier work
DG-75 cells = test system: DG-75 cells; design: method as in earlier work; settings: nitrostyrenes and taxol, MTT assay, reported data; cited from earlier work
[1] = test system: MUTU-I Burkitt’s lymphoma cell line; settings: nitrostyrenes, 24 h, cited from earlier work
[2] = test system: DG-75 Burkitt’s lymphoma cell line; settings: nitrostyrenes, 48 h, cited from earlier work
[3] = test system: HeLa cervical cancer cells; experiment: alamarBlue cell viability assay; settings: Homo sapiens, 24 h; for viability at 1 µM: read-out: % Viable Cells Remaining HeLa 24 h 1 µM; for viability at 10 µM: read-out: % Viable Cells Remaining HeLa 24 h 10 µM
[4] = test system: MCF-7 human breast cancer cells; experiment: alamarBlue cell viability assay; settings: MCF7, 72 h; for viability at 1 µM: read-out: % Viable Cells Remaining MCF-7 72 h 1 µM; for viability at 10 µM: read-out: % Viable Cells Remaining MCF-7 72 h 10 µM
[5] = test system: HL-60 promyelocytic leukaemia cells; experiment: alamarBlue cell viability assay; settings: Homo sapiens, HL-60, 24 h; for viability at 1 µM: read-out: % Viable Cells Remaining HL60 24 h 1 µM; for viability at 10 µM: read-out: % Viable Cells Remaining HL60 24 h 10 µM
HG-3 CLL cell line = experiment: alamarBlue cell viability assay; settings: 24 h; for viability at 10 µM: read-out: % Viability HG-3, 10 µM, 24 h
PGA-1 CLL cell line = experiment: alamarBlue cell viability assay; settings: 24 h; for % Viability PGA-1: 10 µM; for viability at 1 µM / viability at 10 µM: CLL cell; for viability at 1 µM: read-out: % Viability PGA-1, 1 µM, 24 h; for viability at 10 µM: read-out: % Viability PGA-1, 10 µM, 24 h
[6] = test system: MUTU-I Burkitt’s lymphoma cell line; settings: human, 24 h, 10 µM
[7] = test system: DG-75 Burkitt’s lymphoma cell line; settings: human, 48 h, 10 µM
[8] = test system: MUTU-I Burkitt’s lymphoma cell line; experiment: alamarBlue cell viability assay; settings: MUTU-I, 24 h; for viability at 1 µM: read-out: % Viable Cells Remaining MUTU-1, 1 µM, 24 h; for viability at 10 µM: read-out: % Viable Cells Remaining MUTU-1, 10 µM, 24 h
[9] = test system: DG-75 Burkitt’s lymphoma cell line; experiment: alamarBlue cell viability assay; settings: Homo sapiens, DG-75, 48 h; for viability at 1 µM: read-out: % Viable Cells Remaining DG-75, 1 µM, 48 h; for viability at 10 µM: read-out: % Viable Cells Remaining DG-75, 10 µM, 48 h

SMILES	viability at 1 µM (Bjab BL cell line) [%]	viability at 10 µM (Bjab BL cell line) [%]	viability at 1 µM (Ramos BL cell line) [%]	viability at 10 µM (Ramos BL cell line) [%]	DG-75 Apoptosis (%) (DG-75 BL cells)	MUTU-I Apoptosis (%) (MUTU-I BL cells)	pIC50 (MUTU-1 cells)	pIC50 (DG-75 cells)	% Viable Cells Remaining MUTU-1 24 h 1 µM [1] [%]	% Viable Cells Remaining MUTU-1 24 h 10 µM [1]	% Viable Cells Remaining DG-75 48 h 1 µM [2] [%]	% Viable Cells Remaining DG-75 48 h 10 µM [2] [%]	viability at 1 µM [3] [%]	viability at 10 µM [3] [%]	viability at 1 µM [4] [%]	viability at 10 µM [4] [%]	viability at 1 µM [5] [%]	viability at 10 µM [5] [%]	other results
C/C(=C\c1ccccc1Cl)[N+](=O)[O-] [Compound 11g]	82.2	51.9	53.4	7.7	70.6	80.9	6.09	5.56	44.16	14.91%	75.86	−0.08	87.1	34.2	81.4	41.7	73.4	16.5	
C/C(=C\c1ccc(Cl)cc1)[N+](=O)[O-] [Compound 11i]	100	50.8	62.6	13.9	86.4	84.5	5.89	5.56	67.22	10.53%	88.76	0.72	93	17.7	103	37.1	104	6.5	
CC/C(=C\c1ccccc1Cl)[N+](=O)[O-] [Compound 11j, (E)-1-Chloro-2-(2-nitrobut-1-en-1-yl)benzene]	102	68.9	66.9	4.4	72.3	88.3	5.66	5.69	64.31	10.3% and 10.27%	79.77	15.89	95.3	21.8	98.1	20.7	99.8	9.1	viability at 10 µM (HG-3 CLL cell line; CLL cell): 5.61%; % Viability PGA-1 (PGA-1 CLL cell line): 0.53%; viability at 1 µM (PGA-1 CLL cell line): 6.31%; viability at 10 µM (PGA-1 CLL cell line): 0.43%
CC/C(=C\c1cccc(Cl)c1)[N+](=O)[O-] [Compound 11k]					90.7	91.5	5.91	5.63		2.39%									% Viability HG-3 (HG-3 CLL cell line; 10 µM): 0.11%; viability at 1 µM (HG-3 CLL cell line; CLL cell, read-out: % Viability HG-3, 1 µM, 24 h): 60.7%; % Viability PGA-1 (PGA-1 CLL cell line): 4.34%; viability at 1 µM (PGA-1 CLL cell line): 3.26%
CC/C(=C\c1ccc(Cl)cc1)[N+](=O)[O-] [Compound 11l]					85.0	91.3	5.93	5.51		2.61%									
O=[N+]([O-])CCc1c2ccccc2cc2ccccc12 [Compound 22, 9-(2-Nitroethyl)Anthracene]																			melting point: 147 to 149 °C; % Viable Cells Remaining MUTU-1 [6]: 100.6%; % Viable Cells Remaining DG-75 [7]: 99.08%; viability at 1 µM [8]: 105%; viability at 10 µM [8]: > 85%; viability at 1 µM [9]: 86.7%; viability at 10 µM [9]: > 85%; viability at 10 µM (HG-3 CLL cell line; CLL cell): 76%; viability at 10 µM (PGA-1 CLL cell line): 75%
c1ccc2c(C3CNN=N3)c3ccccc3cc2c1 (stereo not shown) [Compound 31, 4-(Anthracen-9-yl)-4,5-Dihydro-1H-1,2,3-Triazole]																			melting point: 266 to 268 °C; % Viable Cells Remaining MUTU-1 [6]: 103.1%; % Viable Cells Remaining DG-75 [7]: 103.1%; viability at 1 µM [8]: 96%; viability at 10 µM [8]: > 90%; viability at 1 µM [9]: 96%; viability at 10 µM [9]: > 90%
